The nature of this data set: method code SF-AS, from DOI: 10.1021/jm00244a011, PMID: 808606.
Consider `CCOC(=O)CCN1C(=O)C=CC1=O`, for which the logP – broadly, a log measure of how a compound divides between an organic and an aqueous phase – was 0.41.

Take `O=C(O)CN1C(=O)C=CC1=O`: the logP is -0.14.

The compound `O=C(O)CCCCCN1C(=O)C=CC1=O` yielded a logP of 1.15.

Compound `CCOC(=O)CCCCCN1C(=O)C=CC1=O` came in with a logP of 1.5.

The compound `O=C(O)CCCN1C(=O)C=CC1=O` gave a logP of 0.4.

Regarding `O=C(O)CCN1C(=O)C=CC1=O`, the log partition coefficient (logP) is 0.04.

On to `CCOC(=O)CCCN1C(=O)C=CC1=O`, for which the logP turned out to be 0.67.

In turn, `CCOC(=O)CN1C(=O)C=CC1=O` yielded a logP of 0.49.

Turning to `O=C(O)CCCCCCCN1C(=O)C=CC1=O`, the logP stood at 1.99.

Regarding `O=C(O)CCCCN1C(=O)C=CC1=O`, the logP was determined as 0.6.
